Assay results: ChEMBL document CHEMBL3739372 (Bioorg Med Chem, 2015)

Legend:
[1] = Inhibition of Influenza B virus wild type neuraminidase
[2] = system: Influenza A virus; test: Antiviral activity against Influenza A virus infected in MDCK cells after 72 hrs by yield reduction assay; format: functional, organism-based
[3] = Cytotoxicity against MDCK cells after 72 hrs by XTT assay; format: cell-based, Canis lupus familiaris; conditions: dog

Row | SMILES | IC50 [1] [µM] | EC50 [2] [nM] | CC50 at 72 h [3] [µM]
1 | CCOC(=O)c1cn(CC)c2ccc(-n3cc(C4=CCCCC4)nn3)cc2c1=O | 22 | 200 | 566
2 | CCOC(=O)C1=C[C@@H](OC(CC)CC)[C@H](NC(C)=O)[C@@H](N)C1 [OSELTAMIVIR] | 16 | 30 | 321
